Measurements as given in patent US9695155B2, “Herbicidal substituted pyrimidinyloxy benzene compounds” (E. I. DU PONT DE NEMOURS AND COMPANY, priority 2013, dated 2017).

Assays:
ragweed = assay: Test E preemergence; format: in vivo, Ambrosia elatior; settings: for Ragweed plant response rating: scale 0 to 100 (0 no effect, 100 complete control); for Plant response rating, Ragweed: scale 0 to 100, 0 no effect, 100 complete control
Description: (§1) Seeds of plant species selected from corn (Zea mays), soybean (Glycine max), velvetleaf (Abutilon theophrasti), lambsquarters (Chenopodium album), wild poinsettia (Euphorbia heterophylla), palmer pigweed (Amaranthus palmeri), waterhemp (common waterhemp, Amaranthus rudis), surinam grass (Brachiaria decumbens), large (Lg) crabgrass (Digitaria sanguinalis), Brazilian crabgrass (Digitaria horizontalis), fall panicum (Panicum dichotomiflorum), giant foxtail (Setaria faberii), green foxtail (Setaria viridis), goosegrass (Eleusine indica), johnsongrass (Sorghum halepense), ragweed (common ragweed, Ambrosia elatior), barnyardgrass (Echinochloa crus-galli), sandbur (southern sandbur, Cenchrus echinatus), arrowleaf sida (Sida rhombifolia), Italian ryegrass (Lolium multiflorum), dayflower (Virginia (VA) dayflower, Commelina virginica), field bindweed (Convolvulus arvensis), morningglory (Ipomoea coccinea), nightshade (eastern black nightshade, Solanum ptycanthum), kochia (Kochia scoparia), yellow nutsedge (Cyperus esculentus), cocklebur (common cocklebur, Xanthium strumarium), smartweed (ladysthumb smartweed, and hairy beggarticks (Bidens pilosa), were planted into a silt loam soil and treated preemergence with test chemicals formulated in a non-phytotoxic solvent mixture which included a surfactant.
(§2) At the same time, plants from these crop and weed species and also horseweed (Canada horseweed, Conyza canadensis), waterhemp_RES1, (ALS & Triazine resistant common waterhemp, Amaranthus rudis), and waterhemp_RES2, (ALS & HPPD resistant common waterhemp, Amaranthus rudis) were planted in pots containing Redi-Earth® planting medium (Scotts Company, 14111 Scottslawn Road, Marysville, Ohio 43041) comprising spaghnum peat moss, vermiculite, wetting agent and starter nutrients were treated with postemergence applications of test chemicals formulated in the same manner. Plants ranged in height from 2 to 18 cm for postemergence treatments (1- to 4-leaf stage). Treated plants and controls were maintained in a greenhouse for 14 to 21 days, after which time all species were compared to controls and visually evaluated. Plant response ratings, summarized in Table E, are based on a scale of 0 to 100 where 0 is no effect and 100 is complete control. A dash (-) response means no test result.

ducksalad = assay: Test C flooded paddy test; format: in vivo, Heteranthera limosa; settings: Flood, scale 0 to 100 (0 no effect, 100 complete control), 13 to 15 days
How it was run: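 Compound was added to standing water 3 cm above soil, flood maintained, and plants held in a greenhouse before visual scoring against controls at 13 to 15 days.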

Brazilian crabgrass = assay: Test E preemergence; format: in vivo, Digitaria horizontalis; settings: for Crabgrass, Brazil plant response rating: scale 0 to 100 (0 no effect, 100 complete control); for Plant response rating, Crabgrass, Brazil: scale 0 to 100, 0 no effect, 100 complete control
Description: as §1, §2

morningglory = assay: Test E preemergence; format: in vivo, Ipomoea coccinea; settings: for Morningglory plant response rating: scale 0 to 100 (0 no effect, 100 complete control); for Plant response rating, Morningglory: scale 0 to 100, 0 no effect, 100 complete control
Description: as §1, §2

johnsongrass = assay: Test E preemergence; format: in vivo, Sorghum halepense; settings: for Johnsongrass plant response rating: scale 0 to 100 (0 no effect, 100 complete control); for Plant response rating, Johnsongrass: scale 0 to 100, 0 no effect, 100 complete control
Description: as §1, §2

kochia = assay: Test E preemergence; format: in vivo, Kochia scoparia; settings: for Kochia plant response rating: scale 0 to 100 (0 no effect, 100 complete control); for Plant response rating, Kochia: scale 0 to 100, 0 no effect, 100 complete control
Description: as §1, §2

palmer pigweed = assay: Test E preemergence; format: in vivo, Amaranthus palmeri; settings: for Pigweed, Palmer plant response rating: scale 0 to 100 (0 no effect, 100 complete control); for Plant response rating, Pigweed, Palmer: scale 0 to 100, 0 no effect, 100 complete control
Description: as §1, §2

blackgrass = assay: Test A postemergence; format: in vivo, Alopecurus myosuroides; settings: 0 to 100 scale where 0 is no effect and 100 is complete control
How it was run: (§3)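 Compounds in non-phytotoxic solvent with surfactant applied as soil spray preemergence, or postemergence to plants 2-10 cm at one- to two-leaf stage, in loam/sand. After approximately 10 days in greenhouse, injury rated visually versus untreated controls, 0 (no effect) to 100 (complete control).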

Italian ryegrass = assay: Test A preemergence; format: in vivo, Lolium multiflorum
How it was run: as §3

Structure (SMILES) | Ragweed plant response rating (ragweed; 16 g ai/ha) | Ragweed plant response rating (ragweed; 31 g ai/ha) | Ragweed plant response rating (ragweed; 62 g ai/ha) | Plant response rating, Ragweed (ragweed; 125 g ai/ha) | Crabgrass, Brazil plant response rating (Brazilian crabgrass; 16 g ai/ha) | Crabgrass, Brazil plant response rating (Brazilian crabgrass; 31 g ai/ha) | Crabgrass, Brazil plant response rating (Brazilian crabgrass; 62 g ai/ha) | Plant response rating, Crabgrass, Brazil (Brazilian crabgrass; 125 g ai/ha) | Morningglory plant response rating (morningglory; 16 g ai/ha) | Morningglory plant response rating (morningglory; 31 g ai/ha) | Morningglory plant response rating (morningglory; 62 g ai/ha) | Plant response rating, Morningglory (morningglory; 125 g ai/ha) | Johnsongrass plant response rating (johnsongrass; 16 g ai/ha) | Johnsongrass plant response rating (johnsongrass; 31 g ai/ha) | Johnsongrass plant response rating (johnsongrass; 62 g ai/ha) | Plant response rating, Johnsongrass (johnsongrass; 125 g ai/ha) | Kochia plant response rating (kochia; 16 g ai/ha) | Kochia plant response rating (kochia; 31 g ai/ha) | Kochia plant response rating (kochia; 62 g ai/ha) | Plant response rating, Kochia (kochia; 125 g ai/ha) | also measured
FC(F)(F)c1cnn(-c2ccccc2Oc2ncc(Br)cn2)c1 [Compound 18, 5-bromo-2-[2-[4-(trifluoromethyl)-1H-pyrazol-1-yl]phenoxy]pyrimidine] | 0 | 0 | 0 | 0 | 0 | 95 | 98 | 100 | 0 | 0 | 0 | 0 | 0 | 0 | 0 | 80 | 0 | 0 | 80 | 100 | Plant response rating, Ragweed (ragweed; 250 g ai/ha): 0; Plant response rating, Ducksalad (ducksalad; 31 g ai/ha): 80; Plant response rating, Ducksalad (ducksalad; 62 g ai/ha): 80; Plant response rating, Ducksalad (ducksalad; 125 g ai/ha): 85; Plant response rating, Ducksalad (ducksalad; 250 g ai/ha): 90; Plant response rating, Crabgrass, Brazil (Brazilian crabgrass; 250 g ai/ha): 100; Plant response rating, Morningglory (morningglory; 250 g ai/ha): 35; Plant response rating, Kochia (kochia; 250 g ai/ha): 100
N#Cc1cccc(Oc2ncc(F)cn2)c1-n1cc(Cl)cn1 [Compound 73] | 0 | 5 | 30 | 60 | 25 | 95 | 100 | 100 | 0 | 0 | 10 | 30 | 0 | 20 | 20 | 35 | 5 | 75 | 98 | 98 | Plant response rating, Ragweed (ragweed; 250 g ai/ha): 80; Pigweed, Palmer plant response rating (palmer pigweed; 16 g ai/ha): 0; Pigweed, Palmer plant response rating (palmer pigweed; 31 g ai/ha): 75; Pigweed, Palmer plant response rating (palmer pigweed; 62 g ai/ha): 100; Plant response rating, Pigweed, Palmer (palmer pigweed; 125 g ai/ha): 100; Plant response rating, Pigweed, Palmer (palmer pigweed; 250 g ai/ha): 100; Plant response rating, Crabgrass, Brazil (Brazilian crabgrass; 250 g ai/ha): 100; Plant response rating, Morningglory (morningglory; 250 g ai/ha): 60; Plant response rating, Johnsongrass (johnsongrass; 250 g ai/ha): 85; Plant response rating, Kochia (kochia; 250 g ai/ha): 100
N#Cc1cccc(Oc2ncc(F)cn2)c1-n1cc(I)cn1 [Compound 86] | 0 | 0 | 5 | 20 | 0 | 0 | 75 | 95 | 0 | 10 | 30 | 75 | 0 | 0 | 65 | 65 | 0 | 90 | 100 | 100 | Plant response rating, Blackgrass (blackgrass; 125 g ai/ha): 90; Plant response rating, Blackgrass (blackgrass; 500 g ai/ha): 100; Pigweed, Palmer plant response rating (palmer pigweed; 31 g ai/ha): 0; Pigweed, Palmer plant response rating (palmer pigweed; 62 g ai/ha): 100; Plant response rating, Pigweed, Palmer (palmer pigweed; 125 g ai/ha): 100; Plant response rating, Ryegrass, Italian (Italian ryegrass; 125 g ai/ha, 0 to 100 scale where 0 is no effect and 100 is complete control): 10; Ryegrass, Italian plant response rating (Italian ryegrass; 500 g ai/ha, 0 to 100 scale, 0 no effect, 100 complete control, approx. 10 days): 60
N#Cc1cnn(-c2c(C#N)cccc2Oc2ncc(F)cn2)c1 [Compound 111] | 25 | 50 | 70 | 90 | 0 | 30 | 75 | 100 | 20 | 35 | 75 | 75 | 0 | 0 | 15 | 70 | 0 | 10 | 95 | 95 | Pigweed, Palmer plant response rating (palmer pigweed; 16 g ai/ha): 10; Pigweed, Palmer plant response rating (palmer pigweed; 31 g ai/ha): 20; Pigweed, Palmer plant response rating (palmer pigweed; 62 g ai/ha): 100; Plant response rating, Pigweed, Palmer (palmer pigweed; 125 g ai/ha): 100
